Reference: patent US12187713B2, “Immunomodulators, compositions and methods thereof” (Betta Pharmaceuticals Co., Ltd, priority 2019, dated 2025)

target: PD-1/PD-L1 (Homo sapiens (Human), UniProt Q9NZQ7); assay: PD-1/PD-L1 Binding Assay (Alphascreen); conditions: numeric values
Procedure: PD-1/PD-L1 Binding Assay (Alphascreen)
The assays were conducted in a standard black 384-well polystyrene plate with a final volume of 20 μL. Inhibitors were first serially diluted in DMSO and then added to the plate wells before the addition of other reaction components. The final concentration of DMSO in the assay was […]. Add 100 nL/well of compound to the 384 reaction plate (6008280, PerkinElmer) with Echo and centrifuge at 1000 rpm for 1 minute. Add 5 μL/well 4×PD-L1 solutions to the 384 reaction plate, centrifuge at 1000 rpm for 1 minute, and add 5 μL/well 4×PD-1 solutions, centrifuge at 1000 rpm for 1 minute, and incubate at 25° C. for 15 minutes. The concentrations of the compounds were 300, 100, 33.33, 11.11, 3.70, 1.23, 0.41, 0.137, 0.046, 0.015, 0 nM, respectively. Add 10 μL/well 2× Anti-6×His AlphaLISA Acceptor beads and Streptavidin Donor beads solution (PerkinElmer-AL356F) to the above 384 reaction plate, centrifuge at 1000 rpm for 1 minute, and incubate at 25° C. in the dark for 120 minutes. Read the AlphaLISA signal value using the Envision Reader. IC50 determination was performed by fitting the curve of percent control activity versus the log of the inhibitor concentration using the GraphPad Prism 8.0 software.

Chain of PD-1/PD-L1 (Q9NZQ7 19-238): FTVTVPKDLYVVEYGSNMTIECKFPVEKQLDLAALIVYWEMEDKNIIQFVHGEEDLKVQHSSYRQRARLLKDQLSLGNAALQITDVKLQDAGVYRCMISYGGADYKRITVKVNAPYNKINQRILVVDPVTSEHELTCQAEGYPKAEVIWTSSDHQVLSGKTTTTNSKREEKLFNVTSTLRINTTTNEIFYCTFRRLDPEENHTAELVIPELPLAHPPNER

Row | Structure (SMILES) | IC50 [nM]
1 | Cc1c(-c2nc3cc(CN4CC5COCC5C4)c(OC(F)F)cc3o2)cccc1-c1cccc(-c2nc3cc(CN4CCC[C@H]4C(=O)O)c(OC(F)F)cc3o2)c1C (stereo partly drawn) [Example 55, ((6-(difluoromethoxy)-2-(3′-(6-(difluoromethoxy)-5-((tetrahydro-1H-furo[3,4-c]pyrrol-5(3H)-yl)methyl)benzo[d]oxazol-2-yl)-2,2′-dimethyl-[1,1′-biphenyl]-3-yl)benzo[d]oxazol-5-yl)methyl)-L-proline] | 0.57
2 | Cc1c(-c2nc3cc(CNCCCNCCO)c(OC(F)F)cc3o2)cccc1-c1cccc(-c2nc3cc(CN4CCC[C@H]4C(=O)O)c(OC(F)F)cc3o2)c1C [Example 58, ((6-(difluoromethoxy)-2-(3′-(6-(difluoromethoxy)-5-(((3-((2-hydroxyethyl)amino)propyl)amino)methyl)benzo[d]oxazol-2-yl)-2,2′-dimethyl-[1,1′-biphenyl]-3-yl)benzo[d]oxazol-5-yl)methyl)-L-proline] | 0.79
3 | Cc1c(-c2nc3cc(CN(C)CCN(C)C)c(OC(F)F)cc3o2)cccc1-c1cccc(-c2nc3cc(CN4CCC[C@H]4C(=O)O)c(OC(F)F)cc3o2)c1C [Example 59, ((6-(difluoromethoxy)-2-(3′-(6-(difluoromethoxy)-5-(((2-(dimethylamino)ethyl)(methyl)amino)methyl)benzo [d]oxazol-2-yl)-2,2′-dimethyl-[1,1′-biphenyl]-3-yl)benzo[d]oxazol-5-yl)methyl)-L-proline] | 2.5

Other lines, results leading:

Row | IC50 [nM] | Structure (SMILES)
4 | 2.4 | Cc1c(-c2nc3cc(CN4CCC[C@H]4C(=O)O)c(OC(F)F)cc3o2)cccc1-c1cccc(-c2nc3cc(CN4CCC45COC5)c(OC(F)F)cc3o2)c1C [Example 39, ((2-(3′-(5-((6-oxa-1-azaspiro[3.3]heptan-1-yl)methyl)-6-(difluoromethoxy)benzo[d]oxazol-2-yl)-2,2′-dimethyl-[1,1′-biphenyl]-3-yl)-6-(difluoromethoxy)benzo[d]oxazol-5-yl)methyl)-L-proline]
5 | 1.1 | Cc1c(-c2nc3cc(CN4CC(C)(O)C4)c(OC(F)F)cc3o2)cccc1-c1cccc(-c2nc3cc(CN4CCC[C@H]4C(=O)O)c(OC(F)F)cc3o2)c1C [Example 44, ((6-(difluoromethoxy)-2-(3′-(6-(difluoromethoxy)-5-((3-hydroxy-3-methylazetidin-1-yl)methyl)benzo[d]oxazol-2-yl)-2,2′-dimethyl-[1,1′-biphenyl]-3-yl)benzo[d]oxazol-5-yl)methyl)-L-proline]
6 | 6.3 | Cc1c(-c2nc3cc(CN4CC5(C4)CS(=O)(=O)C5)c(OC(F)F)cc3o2)cccc1-c1cccc(-c2nc3cc(CN4CCC[C@H]4C(=O)O)c(OC(F)F)cc3o2)c1C [Example 54, ((6-(difluoromethoxy)-2-(3′-(6-(difluoromethoxy)-5-((2,2-dioxido-2-thia-6-azaspiro [3.3]heptan-6-yl)methyl)benzo[d]oxazol-2-yl)-2,2′-dimethyl-[1,1′-biphenyl]-3-yl)benzo[d]oxazol-5-yl)methyl)-L-proline]

same assay, conditions: range symbols

Row | Structure (SMILES) | IC50 [nM]
7 | Cc1c(-c2nc3cc(CN4CC5CCCC5C4)c(OC(F)F)cc3o2)cccc1-c1cccc(-c2nc3cc(CN4CCC[C@H]4C(=O)O)c(OC(F)F)cc3o2)c1C (stereo partly drawn) [Example 49, ((6-(difluoromethoxy)-2-(3′-(6-(difluoromethoxy)-5-((hexahydrocyclopenta [c]pyrrol-2(1H)-yl)methyl)benzo[d]oxazol-2-yl)-2,2′-dimethyl-[1,1′-biphenyl]-3-yl)benzo[d]oxazol-5-yl)methyl)-L-proline] | 0.1 to 5
8 | Cc1c(-c2nc3cc(CN4CC5CNCC5C4)c(OC(F)F)cc3o2)cccc1-c1cccc(-c2nc3cc(CN4CCC[C@H]4C(=O)O)c(OC(F)F)cc3o2)c1C (stereo partly drawn) [Example 50, ((6-(difluoromethoxy)-2-(3′-(6-(difluoromethoxy)-5-((hexahydropyrrolo [3,4-c]pyrrol-2(1H)-yl)methyl)benzo[d]oxazol-2-yl)-2,2′-dimethyl-[1,1′-biphenyl]-3-yl)benzo[d]oxazol-5-yl)methyl)-L-proline] | 0.1 to 5
9 | Cc1c(-c2nc3cc(CN4CC5(CCNCC5)C4)c(OC(F)F)cc3o2)cccc1-c1cccc(-c2nc3cc(CN4CCC[C@H]4C(=O)O)c(OC(F)F)cc3o2)c1C [Example 51, ((2-(3′-(5-((2,7-diazaspiro[3.5]nonan-2-yl)methyl)-6-(difluoromethoxy)benzo[d]oxazol-2-yl)-2,2′-dimethyl-[1,1′-biphenyl]-3-yl)-6-(difluoromethoxy)benzo[d]oxazol-5-yl)methyl)-L-proline] | 0.1 to 5
10 | CCCNCCCNCc1cc2nc(-c3cccc(-c4cccc(-c5nc6cc(CN7CCC[C@H]7C(=O)O)c(OC(F)F)cc6o5)c4C)c3C)oc2cc1OC(F)F [Example 52, ((6-(difluoromethoxy)-2-(3′-(6-(difluoromethoxy)-5-(((3-(propylamino)propyl)amino)methyl)benzo [d]oxazol-2-yl)-2,2′-dimethyl-[1,1′-biphenyl]-3-yl)benzo[d]oxazol-5-yl)methyl)-L-proline] | 0.1 to 5
11 | CCCNCCCN(C)Cc1cc2nc(-c3cccc(-c4cccc(-c5nc6cc(CN7CCC[C@H]7C(=O)O)c(OC(F)F)cc6o5)c4C)c3C)oc2cc1OC(F)F [Example 53, ((6-(difluoromethoxy)-2-(3′-(6-(difluoromethoxy)-5-((methyl(3-(propylamino)propyl)amino)methyl)benzo [d]oxazol-2-yl)-2,2′-dimethyl-[1,1′-biphenyl]-3-yl)benzo[d]oxazol-5-yl)methyl)-L-proline] | 0.1 to 5

Continued, values first:

Row | IC50 [nM] | Structure (SMILES)
12 | 0.1 to 5 | Cc1c(-c2nc3cc(CN4CCC[C@H]4C(=O)O)c(OC(F)F)cc3o2)cccc1-c1cccc(-c2nc3cc(CN4CCC4(C)N)c(OC(F)F)cc3o2)c1C (stereo partly drawn) [Example 40, ((2-(3′-(5-((2-amino-2-methylazetidin-1-yl)methyl)-6-(difluoromethoxy)benzo[d]oxazol-2-yl)-2,2′-dimethyl-[1,1′-biphenyl]-3-yl)-6-(difluoromethoxy)benzo[d]oxazol-5-yl)methyl)-L-proline]
13 | 5 to 50 | Cc1c(-c2nc3cc(CN4CC(S(C)(=O)=O)C4)c(OC(F)F)cc3o2)cccc1-c1cccc(-c2nc3cc(CN4CCC[C@H]4C(=O)O)c(OC(F)F)cc3o2)c1C [Example 41, ((6-(difluoromethoxy)-2-(3′-(6-(difluoromethoxy)-5-((3-(methylsulfonyl)azetidin-1-yl)methyl)benzo[d]oxazol-2-yl)-2,2′-dimethyl-[1,1′-biphenyl]-3-yl)benzo[d]oxazol-5-yl)methyl)-L-proline]
14 | 0.1 to 5 | CC[C@@H]1CCN1Cc1cc2nc(-c3cccc(-c4cccc(-c5nc6cc(CN7CCC[C@H]7C(=O)O)c(OC(F)F)cc6o5)c4C)c3C)oc2cc1OC(F)F [Example 42, ((6-(difluoromethoxy)-2-(3′-(6-(difluoromethoxy)-5-(((R)-2-ethylazetidin-1-yl)methyl)benzo[d]oxazol-2-yl)-2,2′-dimethyl-[1,1′-biphenyl]-3-yl)benzo[d]oxazol-5-yl)methyl)-L-proline]
15 | 5 to 50 | COC1CN(Cc2cc3nc(-c4cccc(-c5cccc(-c6nc7cc(CN8CCC[C@H]8C(=O)O)c(OC(F)F)cc7o6)c5C)c4C)oc3cc2OC(F)F)C1 [Example 43, ((6-(difluoromethoxy)-2-(3′-(6-(difluoromethoxy)-5-((3-methoxyazetidin-1-yl)methyl)benzo[d]oxazol-2-yl)-2,2′-dimethyl-[1,1′-biphenyl]-3-yl)benzo[d]oxazol-5-yl)methyl)-L-proline]
16 | 0.1 to 5 | CNCC1CN(Cc2cc3nc(-c4cccc(-c5cccc(-c6nc7cc(CN8CCC[C@H]8C(=O)O)c(OC(F)F)cc7o6)c5C)c4C)oc3cc2OC(F)F)C1 [Example 45, ((6-(difluoromethoxy)-2-(3′-(6-(difluoromethoxy)-5-((3-((methylamino)methyl)azetidin-1-yl)methyl)benzo[d]oxazol-2-yl)-2,2′-dimethyl-[1,1′-biphenyl]-3-yl)benzo[d]oxazol-5-yl)methyl)-L-proline]
17 | 5 to 50 | Cc1c(-c2nc3cc(CN4CC(=O)C4)c(OC(F)F)cc3o2)cccc1-c1cccc(-c2nc3cc(CN4CCC[C@H]4C(=O)O)c(OC(F)F)cc3o2)c1C [Example 46, ((6-(difluoromethoxy)-2-(3′-(6-(difluoromethoxy)-5-((3-oxoazetidin-1-yl)methyl)benzo[d]oxazol-2-yl)-2,2′-dimethyl-[1,1′-biphenyl]-3-yl)benzo[d]oxazol-5-yl)methyl)-L-proline]
18 | 0.1 to 5 | Cc1c(-c2nc3cc(CN4CC5(COC5)C4)c(OC(F)F)cc3o2)cccc1-c1cccc(-c2nc3cc(CN4CCC[C@H]4C(=O)O)c(OC(F)F)cc3o2)c1C [Example 47, ((2-(3′-(5-((2-oxa-6-azaspiro[3.3]heptan-6-yl)methyl)-6-(difluoromethoxy)benzo[d]oxazol-2-yl)-2,2′-dimethyl-[1,1′-biphenyl]-3-yl)-6-(difluoromethoxy)benzo[d]oxazol-5-yl)methyl)-L-proline]
19 | 0.1 to 5 | Cc1c(-c2nc3cc(CN4CC5(CCC5)C4)c(OC(F)F)cc3o2)cccc1-c1cccc(-c2nc3cc(CN4CCC[C@H]4C(=O)O)c(OC(F)F)cc3o2)c1C [Example 48, ((2-(3′-(5-((2-azaspiro [3.3]heptan-2-yl)methyl)-6-(difluoromethoxy)benzo[d]oxazol-2-yl)-2,2′-dimethyl-[1,1′-biphenyl]-3-yl)-6-(difluoromethoxy)benzo[d]oxazol-5-yl)methyl)-L-proline]
